Experimental data as given in publication PMC7026641, “Identification of the 3-amino-3-carboxypropyl (acp) transferase enzyme responsible for acp^3U formation at position 47 in Escherichia coli tRNAs” (Nucleic Acids Research, 2019).

Experiments:
[1] = molecular target: T1, YfiP (TuaA, tRNA U47 acp transferase A) (Escherichia coli, UniProt Q47319); test: ITC, […]°C, one-site binding model
T1 construct: gene tapT; E. coli YfiP with a C-terminal 6xHis-tag
T1 sequence (Q47319 1-232): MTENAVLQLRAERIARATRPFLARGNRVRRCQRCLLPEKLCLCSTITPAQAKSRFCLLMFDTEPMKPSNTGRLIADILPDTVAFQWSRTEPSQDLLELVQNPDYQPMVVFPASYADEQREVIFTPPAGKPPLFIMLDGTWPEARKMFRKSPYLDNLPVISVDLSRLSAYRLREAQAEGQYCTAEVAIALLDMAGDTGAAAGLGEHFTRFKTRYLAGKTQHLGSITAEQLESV

[2] = molecular target: T1, YfiP (TuaA, tRNA U47 acp transferase A); test: ITC, […]°C, one-site binding model; also in vitro acp transfer to tRNA

| Kd [1] | Compound | Kd [2] |
| --- | --- | --- |
| 131 µM | CSC[C@H]1O[C@@H](n2cnc3c(N)ncnc32)[C@H](O)[C@@H]1O [5-MTA, 5′-methyl 5′-deoxythioadenosine] |  |
| 84 µM | Nc1ncnc2c1ncn2[C@@H]1O[C@H](CSCC[C@H](N)C(=O)O)[C@@H](O)[C@H]1O [SAH, S-adenosylhomocysteine] |  |
|  | C[S+](CC[C@H](N)C(=O)O)C[C@H]1O[C@@H](n2cnc3c(N)ncnc32)[C@H](O)[C@@H]1O (stereo partly drawn) [SAM, S-adenosyl methionine] | 32 µM |
